In US20230148299A1, “FEM1B PROTEIN BINDING AGENTS AND USES THEREOF” (The Regents Of The University Of California, priority 2020, published 2023):

Legend:
BRD4 = target: T1, BRD4 (Homo sapiens, UniProt O60885); assay: BRD4 degradation by Western blot in 231MFP breast cancer cells; assay type: cell-based; conditions: 231MFP cells, NJH-01-106 12 hours, MZ1 4 hours
T1 construct: endogenous in cells; host or cells: 231MFP breast cancer cells
Method: 231MFP breast cancer cells were treated for 12 hours with NJH-01-106, and 4 hours with known BRD4 PROTAC MZ1. BRD4 and loading control GAPDH levels were assessed by Western blotting following treatment with NJH-01-106 or MZ1, as described above, and are shown in FIG. 4.
Western Blot Protocol. Proteins were resolved by SDS-PAGE (4-20% TGX gels, Bio-Rad Laboratories, Inc.) and transferred to nitrocellulose membranes using the Trans-Blot Turbo transfer system (Bio-Rad). Membranes were blocked with 5% BSA in Tris-buffered saline containing Tween 20 (TBST) solution for 1 h at room temperature, washed in TBST and probed with primary antibody diluted in diluent, as recommended by the various manufacturers, overnight at 4° C. Primary antibodies used were: BRD4 (Cell Signaling Technologies #13440), GAPDH (ProteinTech 60004-1-Ig), FEM1B (ProteinTech 19544-1-AP). Following washes with TBST, the blots were incubated in the dark with secondary antibodies purchased from Li-Cor Biosciences and used at 1:10,000 dilution in 5% BSA in TBST at room temperature for 1 h. Blots were visualized using an Odyssey Li-Cor scanner after additional washes. Protein intensity was quantified using ImageJ software.

FEM1B-FNIP1 = FEM1B-FNIP1 (Homo sapiens, UniProt Q9UK73); assay: Fluorescence polarization between FEM1B and FNIP1 (covalent ligand screen); assay type: binding; conditions: DMSO = 100, FP between FEM1B and FNIP1; for remaining activity at 5 µM: compound at 5 μM, read-out: Normalized FP 5 μM; for activity at 50 µM: compound at 50 μM, read-out: Normalized FP 50 μM
Chain of FEM1B-FNIP1 (Q9UK73 whole entry): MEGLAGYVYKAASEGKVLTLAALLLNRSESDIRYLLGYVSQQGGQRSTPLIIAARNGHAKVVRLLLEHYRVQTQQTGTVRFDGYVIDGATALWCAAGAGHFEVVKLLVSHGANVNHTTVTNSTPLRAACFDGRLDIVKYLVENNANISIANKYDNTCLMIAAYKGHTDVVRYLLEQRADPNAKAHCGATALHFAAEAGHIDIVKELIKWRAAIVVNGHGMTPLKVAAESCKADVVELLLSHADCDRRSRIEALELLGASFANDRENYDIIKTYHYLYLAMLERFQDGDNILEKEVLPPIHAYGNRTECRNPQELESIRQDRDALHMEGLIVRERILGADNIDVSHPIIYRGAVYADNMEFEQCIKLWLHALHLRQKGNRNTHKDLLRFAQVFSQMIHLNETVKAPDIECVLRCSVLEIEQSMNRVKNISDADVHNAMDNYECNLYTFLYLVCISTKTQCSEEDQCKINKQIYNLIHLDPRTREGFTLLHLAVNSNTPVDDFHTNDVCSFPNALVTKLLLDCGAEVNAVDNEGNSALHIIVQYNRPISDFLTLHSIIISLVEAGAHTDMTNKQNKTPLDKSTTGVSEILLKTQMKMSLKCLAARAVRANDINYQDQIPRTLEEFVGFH
From the text: FIG. 11. Fluorescence polarization screen to identify functional FEM1B-FNIP1-targeting covalent ligands.
(§1) FEM1B binds a conserved central degron in FNIP1. Deletion analysis of FNIP1 identifies a stretch of 20 amino acids that is required for its binding to FEM1B and its proteasomal degradation. FNIP1 variants were expressed in cells and tested for interaction with ^FLAGFEM1B by co-immunoprecipitation, and for degradation by measuring their abundance in the presence or absence of FEM1B. The FNIP1 degron is required for FEM1B binding and proteasomal degradation. […] FEM1B variants were immunoprecipitated and bound FNIP1 and FLCN were detected by Western blotting. The FNIP1 degron is sufficient to mediate FEM1B-dependent degradation. The FNIP1 degron was fused to GFP (GFP^degron) and expressed from the same plasmid as an IRES controlled mCherry. mCherry provides normalization for GFP fluorescence in each cell. […] Levels of GFP^degron and mCherry were determined by FACS, and their ratio is depicted for presence or absence of FEM1B variants. Deletion of FEM1B prevents FNIP1-degron dependent degradation. The FEM1B locus was deleted in 293T cells using CRISPR/Cas9. Cells were transfected with the GFP^degron/mCherry reporter, and analyzed for GFP and mCherry fluorescence by FACS. FEM1B directly binds the FNIP1 degron in vitro. A TAMRA-labeled FNIP1 degron peptide was incubated with purified FEMIB or the control CRL1 adaptor FBXL17, and binding was measured by fluorescence polarization of the peptide. The FNIP1 degron is sufficient to mediate CUL2^FEM1B-dependent ubiquitylation. The TAMRA-labeled FNIP1 degron was incubated with recombinant CUL2^FEM1B (unmodified or NEDD8-modified), E1, ubiquitin, ATP and the E2 enzymes UBE2D3 and/or UBE2R1. Ubiquitylation was monitored by gel electrophoresis and fluorescence detection.

[1] = system: GFP-Fnip1 degron reporter; assay: GFP-Fnip1 degron reporter (GFP/mCherry) by flow cytometry; assay type: cell-based; conditions: GFP/mCherry ratio by FACS
Method: HEK293T cells were transfected 24 hours before flow cytometery with the GFP-Fnip1 degron reporter+/−Fem1b.
FNIP1 variants were expressed in cells and tested for interaction with ^FLAGFEM1B by co-immunoprecipitation, and for degradation by measuring their abundance in the presence or absence of FEM1B. […] FEM1B variants were immunoprecipitated and bound FNIP1 and FLCN were detected by Western blotting. […] The FNIP1 degron was fused to GFP (GFP^degron) and expressed from the same plasmid as an IRES controlled mCherry. mCherry provides normalization for GFP fluorescence in each cell. […] Levels of GFP^degron and mCherry were determined by FACS, and their ratio is depicted for presence or absence of FEM1B variants. […] Cells were transfected with the GFP^degron/mCherry reporter, and analyzed for GFP and mCherry fluorescence by FACS. […] A TAMRA-labeled FNIP1 degron peptide was incubated with purified FEMIB or the control CRL1 adaptor FBXL17, and binding was measured by fluorescence polarization of the peptide. […] The TAMRA-labeled FNIP1 degron was incubated with recombinant CUL2^FEM1B (unmodified or NEDD8-modified), E1, ubiquitin, ATP and the E2 enzymes UBE2D3 and/or UBE2R1. Ubiquitylation was monitored by gel electrophoresis and fluorescence detection.

FEM1B = FEM1B (Homo sapiens, UniProt Q9UK73); assay: Fluorescence polarization binding of TAMRA-labeled FNIP1 degron peptide to recombinant FEM1B; conditions: degron peptide treated with agent
Chain of FEM1B (Q9UK73 whole entry): as above
From the text: as §1, with “The FEM1B locus was deleted in 293T cells using CRISPR/Cas9.” left out, “FEM1B directly binds the FNIP1 degron in vitro.” left out, “The FNIP1 degron is sufficient to mediate CUL2^FEM1B-dependent ubiquitylation. The TAMRA-labeled FNIP1 degron was incubated with recombinant CUL2^FEM1B (unmodified or NEDD8-modified), E1, ubiquitin, ATP and the E2 enzymes UBE2D3 and/or UBE2R1.” left out, “detection. […]” for “detection.”

Compound	degradation of BRD4 (BRD4)	remaining activity at 5 µM (FEM1B-FNIP1) [%]	activity at 50 µM (FEM1B-FNIP1) [%]	stability of GFP^degron reporter [1]	recognition of FNIP1 degron by FEM1B after treatment of degron with Cys-modifying agent (FEM1B)
Cc1sc2c(c1C)C(c1ccc(Cl)cc1)=N[C@@H](CC(=O)NCCCCCNC(=O)CN1CCOc3cc(N(CCC#N)C(=O)CCl)ccc31)c1nnc(C)n1-2 [EN106 linked to BRD4 inhibitor JQ1, (S)-2-chloro-N-(4-(2-((5-(2-(4-(4-chlorophenyl)-2,3,9-trimethyl-6H-thieno[3,2-f][1,2,4]triazolo[4,3-a][1,4]diazepin-6-yl)acetamido)pentyl)amino)-2-oxoethyl)-3,4-dihydro-2H-benzo[b][1,4]oxazin-7-yl)-N-(2-cyanoethyl)acetamide]	degradation of BRD4	–	–	–	–
C=CCOc1ccccc1CN(C(=O)CCl)c1ccc2c(c1)OCCO2 [EN-NJH-001]	–	97.8	19.1	–	–
CCOc1ccc(N(CCC#N)C(=O)CCl)cc1 [EN-NJH-002]	–	40.1	8.82	–	–
N#CCCN(C(=O)CCl)c1cccc(Cl)c1 [EN-NJH-003]	–	54.1	2.7	–	–
CCN(C(=O)CCl)c1ccc2c(c1)OCO2 [EN-NJH-004]	–	76.1	11.8	–	–
CC(Cl)C(=O)Nc1ccc2c(c1)OCCO2 (stereo not drawn) [EN-NJH-005]	–	98.1	101	–	–
C=CCOc1ccccc1CN(C(=O)CCl)c1ccc2c(c1)OCO2 [EN-NJH-006]	–	89.7	21.5	–	–
O=C(CCl)Nc1cc2c(cc1Br)OCCO2 [EN-NJH-007]	–	87.7	11.7	–	–
CC(Cl)C(=O)N(CCC#N)c1ccccc1 (stereo not drawn) [EN-NJH-008]	–	97.9	113	–	–
O=C(CCl)N(Cc1cccs1)c1ccc2c(c1)OCCO2 [EN-NJH-009]	–	74.8	6	–	–
N#CCCN(C(=O)CCl)c1ccccc1F [EN-NJH-010]	–	46.8	14.6	–	–
Cc1ccc(N(CCC#N)C(=O)CCl)cc1 [EN-NJH-011]	–	45.8	4.29	–	–
COc1ccccc1N(CCC#N)C(=O)CCl [EN-NJH-012]	–	90.4	24.8	–	–
O=C(CCl)Nc1ccc2c(c1)OCCO2 [EN-NJH-013]	–	93.1	21.3	–	–
O=C(CCl)Nc1cc2c(cc1Cl)OCCO2 [EN-NJH-014]	–	94.8	21.8	–	–
N#CCCN(C(=O)CCl)c1ccc(F)cc1 [EN-NJH-015]	–	36.3	16.3	–	–
Cc1ccc(N(CCC#N)C(=O)CCl)cc1C [EN-NJH-016]	–	43.7	11.3	–	–

Compound	degradation of BRD4 (BRD4)	remaining activity at 5 µM (FEM1B-FNIP1) [%]	activity at 50 µM (FEM1B-FNIP1) [%]	stability of GFP^degron reporter [1]	recognition of FNIP1 degron by FEM1B after treatment of degron with Cys-modifying agent (FEM1B)
Cc1cc(C)cc(N(CCC#N)C(=O)CCl)c1 [EN-NJH-017]	–	63.7	17.4	–	–
Cc1cc(N(CCC#N)C(=O)CCl)ccc1Cl [EN-NJH-018]	–	16.4	12	–	–
N#CCCN(C(=O)CCl)c1ccccc1 [EN-NJH-019]	–	44.1	19.4	–	–
COc1cc2c(cc1OC)N(C(=O)CCl)CC2 [EN-NJH-020]	–	15.6	19.1	–	–
O=C(CCl)N(CC=Cc1ccccc1)c1ccc2c(c1)OCCO2 [EN-NJH-021]	–	86.4	26.8	–	–
C#CCCCCNC(=O)CI [IAyne]	–	–	–	stabilizes GFP^degron in cells	–
Cc1ncsc1-c1ccc(CNC(=O)[C@@H]2C[C@@H](O)CN2C(=O)[C@@H](NC(=O)COCCOCCOCCNC(=O)C[C@@H]2N=C(c3ccc(Cl)cc3)c3c(sc(C)c3C)-n3c(C)nnc32)C(C)(C)C)cc1 [MZ1, reference compound]	degradation of BRD4	–	–	–	–
CC(=O)N[C@@H](CS)C(=O)O [N-acetylcysteine]	–	–	–	does not affect the stability of the GFP^degron reporter	–
CCN1C(=O)C=CC1=O [N-ethylmaleimide]	–	–	–	–	strongly inhibited its recognition by FEM1B
CC(C)(C)OC(=O)N1CCOc2ccc(N(CCC#N)C(=O)CCl)cc21 [NJH-01-073]	–	32.8	9.87	–	–
CC(=O)N1CCOc2ccc(N(CCC#N)C(=O)CCl)cc21 [NJH-01-085]	–	31.3	14.2	–	–
CC(C)(C)OC(=O)CN1CCOc2cc(N(CCC#N)C(=O)CCl)ccc21 [NJH-01-093]	–	26.5	15.2	–	–
C=CC(=O)N(CCC#N)c1ccc2c(c1)OCCO2 [NJH-01-098]	–	105	115	–	–
COc1cccc(CN(C(=O)CCl)c2ccc3c(c2)OCCO3)c1 [SB-02-092]	–	54.9	12.6	–	–
CC(C)C[C@H](NC(=O)[C@H](CCc1ccccc1)NC(=O)CN1CCOCC1)C(=O)N[C@@H](Cc1ccccc1)C(=O)N[C@@H](CC(C)C)C(=O)[C@@]1(C)CO1 [carfilzomib]	–	–	–	stabilizes the GFP^degron reporter	–
NC(=O)CI [iodoacetamide]	–	–	–	–	strongly inhibited its recognition by FEM1B
antimycin A	–	–	–	stabilized GFP^degron	–
